Measurements from EP4707284A1, “HETEROCYCLIC COMPOUND AND USE THEREOF” (Otsuka Pharmaceutical Co., Ltd., priority 2023, dated 2024).

Type: physicochemical
Settings: Tris-hydrochloric acid buffer (pH 7.5) 50 mmol/L, magnesium chloride 5 mmol/L, evaluation compound 1 µmol/L, 37°C, 60 minutes, average of duplicate
Method: The conversion from the evaluation compounds to brexpiprazole in a buffer (i.e., the stability of the evaluation compounds) was evaluated.
The Example 1 compound was dissolved in acetonitrile/water (1:1, v/v) to 10 mmol/L and further diluted with acetonitrile/water (1:1, v/v) to 100 µmol/L for use.
The other Example compounds and the Reference Example 5 compound to Reference Example 7 compound were each dissolved in DMSO to 10 mmol/L and further diluted with acetonitrile to 100 µmol/L for use, except for the following compounds.
The compounds of Examples 52, 95, 96, 117, and 130 (EX 52, EX 95, EX 96, EX 117, and EX 130) were dissolved in acetonitrile/water (8:2, v/v) to 10 mmol/L and further diluted with acetonitrile to 100 µmol/L for use.
The compound of Example 97 (EX 97) was dissolved in acetonitrile/water (8:2, v/v) to 10 mmol/L and further diluted with acetonitrile/water (8:2, v/v) to 100 µmol/L for use.
The compounds of Examples 15 and 116 (EX 15 and EX 116) were dissolved in DMSO to 1 mmol/L and further diluted with acetonitrile to 100 µmol/L for use.
These evaluation compound solutions were prepared at the time of use.
The reaction was conducted by preparing each reaction solution such that the final concentration of each component was as follows. The test was conducted in duplicate.
For the compounds of Examples 1 to 8, 10 to 19, 26 to 27, 37, 50, 87 to 89, 91, 116, 121, 123, 150, and 151 (EX 1 to EX 8, EX 10 to EX 19, EX 26 to EX 27, EX 37, EX 50, EX 87 to EX 89, EX 91, EX 116, EX 121, EX 123, EX 150, and EX 151), and the compounds of Reference Examples 5 to 7 (REX 5 to REX 7), the reaction solution without the evaluation compound (198 µl) was pre-incubated at 37°C for 3 minutes, and then each of the evaluation compound solutions (2 µl) was added and stirred; thereafter, the reaction was started at 37°C. At 0 minutes or 60 minutes after the start of the reaction, the reaction was stopped by adding and stirring a reaction stop solution (1000 µl) composed of acetonitrile/isopropanol (4:1, v/v) containing internal standard substances. However, the 0-minute reaction sample (198 µl) was prepared by adding the evaluation compound (2 µl) after adding the reaction stop solution (1000 µl). The samples after stopping the reaction were used as the measurement samples. Calibration curve samples with the same composition were prepared (final concentrations of the evaluation compounds and brexpiprazole: 0.01, 0.1, and 1 µmol/L, with the proviso that for the evaluation compounds only, the 0-minute reaction samples were also used as calibration curve samples for 1 µmol/L).
For the compounds of Examples 24 to 25, 28 to 29, 32 to 36, 40 to 49, 51 to 60, 62 to 64, 66 to 77, 80 to 86, 90, 92 to 111, 113, 115, 117 to 120, 122, 124 to 130, 132 to 147, and 152 to 160 (EX 24 to EX 25, EX 28 to EX 29, EX 32 to EX 36, EX 40 to EX 49, EX 51 to EX 60, EX 62 to EX 64, EX 66 to EX 77, EX 80 to EX 86, EX 90, EX 92 to EX 111, EX 113, EX 115, EX 117 to EX 120, EX 122, EX 124 to EX 130, EX 132 to EX 147, and EX 152 to EX 160), the reaction solution without the evaluation compound (148.5 µl) was pre-incubated at 37°C for 3 minutes, and then each of the evaluation compound solutions (1.5 µl) was added and stirred; thereafter, the reaction was started at 37°C. At 0 minutes or 60 minutes after the start of the reaction, the reaction was stopped by adding and stirring a reaction stop solution (600 µl) composed of acetonitrile/isopropanol (4:1, v/v) containing internal standard substances. However, the 0-minute reaction sample (148.5 µl) was prepared by adding the evaluation compound (1.5 µl) after adding the reaction stop solution (600 µl). The samples after stopping the reaction were used as the measurement samples. […]

| SMILES | Concentration of brexpiprazole formed [nM] | Concentration of evaluation compound decreased [nM] |
| --- | --- | --- |
| O=c1ccc2ccc(OCCCC[N+]3(COP(=O)([O-])OCCCCCCCBr)CCN(c4cccc5sccc45)CC3)cc2[nH]1 [EX 64] | 0 | 30 |
| O=c1ccc2ccc(OCCCC[N+]3(COP(=O)([O-])OCCCCCO)CCN(c4cccc5sccc45)CC3)cc2[nH]1 [EX 92] | 0 | 110 |
| CCOCCOC(=O)[C@@H](C)OP(=O)([O-])OC[N+]1(CCCCOc2ccc3ccc(=O)[nH]c3c2)CCN(c2cccc3sccc23)CC1 [EX 109] | 0 | -20 |
| CC(C)OC(=O)[C@@H](C)OP(=O)([O-])OC[N+]1(CCCCOc2ccc3ccc(=O)[nH]c3c2)CCN(c2cccc3sccc23)CC1 [EX 105] | 0 | 50 |
| CC(C)COC(=O)[C@@H](C)OP(=O)([O-])OC[N+]1(CCCCOc2ccc3ccc(=O)[nH]c3c2)CCN(c2cccc3sccc23)CC1 [EX 107] | 0 | 70 |
| COCC(COC)OP(=O)([O-])OC[N+]1(CCCCOc2ccc3ccc(=O)[nH]c3c2)CCN(c2cccc3sccc23)CC1 [EX 56] | 0 | 40 |
| CC(C)COCCOP(=O)([O-])OC[N+]1(CCCCOc2ccc3ccc(=O)[nH]c3c2)CCN(c2cccc3sccc23)CC1 [EX 51] | 0 | 50 |
| O=C(OCOP(=O)([O-])OC[N+]1(CCCCOc2ccc3ccc(=O)[nH]c3c2)CCN(c2cccc3sccc23)CC1)N1CCOCC1 [EX 160] | 0 | -10 |
| CN1CCN(CCOP(=O)([O-])OC[N+]2(CCCCOc3ccc4ccc(=O)[nH]c4c3)CCN(c3cccc4sccc34)CC2)CC1 [EX 117] | 0 | 50 |
| O=C(OCOP(=O)([O-])OC[N+]1(CCCCOc2ccc3ccc(=O)[nH]c3c2)CCN(c2cccc3sccc23)CC1)OCC1CCOCC1 [EX 142] | 0 | -70 |
| COCCOC(=O)OCOP(=O)([O-])OC[N+]1(CCCCOc2ccc3ccc(=O)[nH]c3c2)CCN(c2cccc3sccc23)CC1 [EX 33] | 0 | 0 |
| CCCCOCCOCCOCCOC(=O)OCOP(=O)([O-])OC[N+]1(CCCCOc2ccc3ccc(=O)[nH]c3c2)CCN(c2cccc3sccc23)CC1 [EX 138] | 0 | 90 |
| CCCCCC(=O)OC[N+]1(CCCCOc2ccc3ccc(=O)[nH]c3c2)CCN(c2cccc3sccc23)CC1.[I-] [REX 6, 4-(Benzo[b]thiophen-4-yl)-1-((hexanoyloxy)methyl)-1-(4-((2-oxo-1,2-dihydroquinolin-7-yl)oxy)butyl)piperazin-1-ium iodide, reference compound] | 210 | 220 |
| CC1(C)OCC(COP(=O)([O-])OC[N+]2(CCCCOc3ccc4ccc(=O)[nH]c4c3)CCN(c3cccc4sccc34)CC2)CO1 [EX 55] | 0 | 70 |
| CCNP(=O)([O-])OC[N+]1(CCCCOc2ccc3ccc(=O)[nH]c3c2)CCN(c2cccc3sccc23)CC1 [EX 151] | 0 | -10 |
| Cc1ncccc1C(=O)OCOP(=O)([O-])OC[N+]1(CCCCOc2ccc3ccc(=O)[nH]c3c2)CCN(c2cccc3sccc23)CC1 [EX 81] | 0 | -30 |
| O=c1ccc2ccc(OCCCC[N+]3(COP(=O)([O-])OCC(F)F)CCN(c4cccc5sccc45)CC3)cc2[nH]1 [EX 115] | 0 | 50 |
| O=c1ccc2ccc(OCCCC[N+]3(COP(=O)([O-])OCCCCCCCCCO)CCN(c4cccc5sccc45)CC3)cc2[nH]1 [EX 46] | 0 | 40 |
| CSCCCOP(=O)([O-])OC[N+]1(CCCCOc2ccc3ccc(=O)[nH]c3c2)CCN(c2cccc3sccc23)CC1 [EX 66] | 0 | 170 |
| O=c1ccc2ccc(OCCCC[N+]3(COP(=O)([O-])OCCOCC4CC4)CCN(c4cccc5sccc45)CC3)cc2[nH]1 [EX 52] | 0 | -40 |
| CCCCCCOC(=O)OC[N+]1(CCCCOc2ccc3ccc(=O)[nH]c3c2)CCN(c2cccc3sccc23)CC1.[I-] [REX 7, 4-(Benzo[b]thiophen-4-yl)-1-((((hexyloxy)carbonyl)oxy)methyl)-1-(4-((2-oxo-1,2-dihydroquinolin-7-yl)oxy)butyl)piperazin-1-ium iodide, reference compound] | 240 | 270 |
| CC(C)(C)C(=O)OCCCCCCOP(=O)([O-])OC[N+]1(CCCCOc2ccc3ccc(=O)[nH]c3c2)CCN(c2cccc3sccc23)CC1 [EX 102] | 0 | 70 |
| O=c1ccc2ccc(OCCCC[N+]3(COP(=O)([O-])OC/C=C/CO)CCN(c4cccc5sccc45)CC3)cc2[nH]1 [EX 42] | 0 | 30 |
| CCOC(=O)CNP(=O)([O-])OC[N+]1(CCCCOc2ccc3ccc(=O)[nH]c3c2)CCN(c2cccc3sccc23)CC1 [EX 154] | 0 | 20 |
| O=c1ccc2ccc(OCCCC[N+]3(COP(=O)([O-])OCCN4CCCCC4)CCN(c4cccc5sccc45)CC3)cc2[nH]1 [EX 118] | 0 | 60 |
| CC(O)CCOP(=O)([O-])OC[N+]1(CCCCOc2ccc3ccc(=O)[nH]c3c2)CCN(c2cccc3sccc23)CC1 (stereo not drawn) [EX 40] | 0 | 60 |
| CCOC(=O)CC(C)(C)CC(=O)OCOP(=O)([O-])OC[N+]1(CCCCOc2ccc3ccc(=O)[nH]c3c2)CCN(c2cccc3sccc23)CC1 [EX 32] | 0 | 10 |
| CCOC(=O)C1CCN(CCOP(=O)([O-])OC[N+]2(CCCCOc3ccc4ccc(=O)[nH]c4c3)CCN(c3cccc4sccc34)CC2)CC1 [EX 147] | 0 | 70 |
| CCCC(C)(C)C(=O)OCOP(=O)([O-])OC[N+]1(CCCCOc2ccc3ccc(=O)[nH]c3c2)CCN(c2cccc3sccc23)CC1 [EX 123] | 0 | -110 |

Same assay, conditions: Tris-hydrochloric acid buffer (pH 7.5), 37°C, 60 minutes

| SMILES | stability in the buffer / conversion to brexpiprazole (in words) |
| --- | --- |
| CCCCCC(=O)OC[N+]1(CCCCOc2ccc3ccc(=O)[nH]c3c2)CCN(c2cccc3sccc23)CC1.[I-] [REX 6, 4-(Benzo[b]thiophen-4-yl)-1-((hexanoyloxy)methyl)-1-(4-((2-oxo-1,2-dihydroquinolin-7-yl)oxy)butyl)piperazin-1-ium iodide, reference compound] | clearly degraded to brexpiprazole |
| CCCCCCOC(=O)OC[N+]1(CCCCOc2ccc3ccc(=O)[nH]c3c2)CCN(c2cccc3sccc23)CC1.[I-] [REX 7, 4-(Benzo[b]thiophen-4-yl)-1-((((hexyloxy)carbonyl)oxy)methyl)-1-(4-((2-oxo-1,2-dihydroquinolin-7-yl)oxy)butyl)piperazin-1-ium iodide, reference compound] | clearly degraded to brexpiprazole |
